Results: patent US20070020329A1, “Methods of formulating linezolid” (priority 2005, published 2007)

Assay: Polymorphic stability of solid linezolid Form IV, alone and in contact with solvents
Assay type: physicochemical
Description: As a consequence, pharmaceutical compositions comprising linezolid Form IV substantially free of linezolid Form II are difficult to prepare.

Compound: CC(=O)NC[C@H]1CN(c2ccc(N3CCOCC3)c(F)c2)C(=O)O1 [linezolid Form IV, N-[[(5S)-3-[3-fluoro-4-(4-morpholinyl)phenyl]-2-oxo-5-oxazolidinyl]methyl]acetamide]
- conversion of Form IV to Form II (in words) (contacted with solvents, in particular ethanol): readily transforms to linezolid Form II
- conversion of solid Form IV to Form II (in words) (solid, at least 3 months at temperatures between 25 and 40° C.): does not convert to linezolid Form II
